Row | melting point | Compound
1 | 76 to 77 °C | CC(=O)C(=O)N[C@H](CO[N+](=O)[O-])c1ccccc1 [Example 4, N-[(1S)-2-(Nitrooxy)-1-phenylethyl]-2-oxopropanamide]
2 | 72 to 75 °C | CC(=O)C(=O)N[C@H](CO[N+](=O)[O-])Cc1ccccc1 [Example 5, N-[(1S)-2-(Nitrooxy)-1-benzylethyl]-2-oxopropanamide]

— patent US20080287407A1, “Nitric Oxide Releasing Pyruvate Compounds, Compositions and Methods of Use” (NitroMed, Inc., priority 2003, published 2008)
